Test results as given in article PMC11857742, “Antiaging Potential of Lipophilic Extracts of Caulerpa prolifera” (Marine Drugs, 2025).

Target: T1, collagenase
T1 construct: gene colG; usual product is native clostridial collagenase
Assay: FALGPA hydrolysis, ninhydrin detection at […] nm
Type: biochemical
Settings: pH 7.4, 37 °C, TES, calcium chloride; chelates the metal cofactor

## O=C(O)CN(CCN(CC(=O)O)CC(=O)O)CC(=O)O [EDTA]
  Collagenase / IC50: 51.2 ± 0.12 µg/mL
